# Source: patent US4454122A, “Adenosine derivatives of anti-inflammatory and analgesic activity, and therapeutic compositions which contain them as their active principle” (Bioresearch S.r.l., priority 1982, dated 1984)
# What was measured:
# [1] = system: experimental edema in the rat by carragen; assay: experimental edema in the rat by carragen (Winter method), percentage protection; type: in vivo; settings: for inhibition in vivo at 85 mg/kg: 85 mg/kg orally; for inhibition in vivo at 80 mg/kg: 80 mg/kg orally
# gastro-intestinal system = assay: secondary effects on the gastro-intestinal system at ED50 doses (gastric lesions); type: in vivo, rat; settings: at ED50 doses
# Procedure: In the same test, the ED50 of indomethacine is 9 mg/kg.
# [2] = lethal dose in the rat and therapeutical index; settings: in vivo; edema test in the rat; read-out: therapeutical index (TI)
# [3] = system: pleuritis induced in the rat by carragen; assay: pleuritis induced in the rat by carragen (Velo method); type: in vivo
# rat = settings: Martelli A., 1973; cited from earlier work
# [4] = system: experimental edema in the rat by carragen; assay: experimental edema in the rat by carragen (Winter method), percentage protection; type: in vivo
# Procedure: ^ (a) signifies that the product was administered intramuscularly.
# [5] = system: stretching by phenylquinone; assay: stretching test by phenylquinone (analgesic activity); type: in vivo; settings: im; intramuscularly
# [6] = acute toxicity, DL50 in the mouse; settings: in vivo
# Excerpt: The compounds of the present invention are practically free from acute toxicity when administered orally. They are practically free from toxicity at therapeutic doses for any method of administration. The following values are obtained for MTA and MTA sulphoxide: […]
# mouse = assay: hot plate test on the mouse according to Roberts (analgesic activity); type: in vivo
# Procedure: C--The analgesic activity of the products was tested by two tests considered very significant.
# In the hot plate test on the mouse according to Roberts (Roberts E. Simonsen D.G. (1966) Biochem. Pharmac. 15, 1875-) the MTA gives a protection of 50% with an oral dose of 37 mg/kg. An approximately equivalent protection of 58% is obtained with 100 mg/kg of amidopyrine administered orally.
# [7] = system: platelet aggregation induced by arachidonic acid; assay: in vitro platelet aggregation induced by arachidonic acid (AA); type: cell-based; settings: MTA 5×10^-4 M or PGI2 5×10^-9 M, each alone; FIG. 3
# Procedure: (2) "in vitro" tests on platelet aggregation induced by arachidonic acid (AA);
# Blood was withdrawn without stasis, and an anticoagulant (3.8% sodium citrate) was added to give a blood:citrate ratio of 9:1. Plasma rich in platelets and plasma poor in platelets were obtained by centrifuging at ambient temperature.
# The platelet aggregation was estimated using the Born & Cross method (G. V. R. Born and M. J. Cross, J. Physiol., Lond. 168, 178, 1963) on the plasma fraction rich in platelets.
# The aggregating agents were used in the following concentrations:
# ADP (Sigma) 1 μM; collagen (Horn) 5 μml; arachidonic acid 4×10^-4 M.
# The capacity of MTA to increase the inhibiting effect of prostacyclin (PGI2) in aggregation induced by AA was also investigated. In FIG. 3, curve 1 relates to the controls, curve 2 to MTA at a concentration of 5×10^-4 M, curve 3 to PGI2 at a concentration of 5×10^-9 M, and curve 4 to a mixture consisting of 5×10^-4 M MTA and 5×10^-9 M PGI2.
# [8] = system: fever induced in the rat by beer yeast; assay: fever induced in the rat by beer yeast (antipyretic activity); type: in vivo; settings: 200 mg/kg, orally
# Procedure: This was measured for the new products by means of fever induced in the rat by beer yeast (Winder C. V. et al (1961) J. Pharmacol. Exp. Ther. 133, 117).
# [9] = po, rat, read-out: Percent protection calculated on edema development
# [10] = intramuscular, table 1 and all the tests carried out
compound,measurement,setting,value
CC(C)CSC[C@H]1O[C@@H](n2cnc3c(N)ncnc32)[C@H](O)[C@@H]1O,inhibition in vivo at 85 mg/kg,[1]; [9],62%
CC(C)SC[C@H]1O[C@@H](n2cnc3c(N)ncnc32)[C@H](O)[C@@H]1O,inhibition in vivo at 80 mg/kg,[1]; [9],45%
CCC(C)SC[C@H]1O[C@@H](n2cnc3c(N)ncnc32)[C@H](O)[C@@H]1O (stereo partly drawn),inhibition in vivo at 85 mg/kg,[1]; [9],35%
"COc1ccc2c(c1)c(CC(=O)O)c(C)n2C(=O)c1ccc(Cl)cc1 [Indomethacine, reference compound]",secondary effect on the gastro-intestinal system / gastric lesions,gastro-intestinal system,serious gastric lesions
same,selectivity ratio,[2],1.3
same,ED50,"[1]; Rattus norvegicus, po, read-out: ED50 (edema test)",9 mg/kg
same,"protection, compared with that of MTA (in words)","[3]; 10 mg/kg, compared with MTA 75 mg/kg oral",comparable protection
same,LD in the rat,rat,12 mg/kg
same,inhibition in vivo at 9 mg/kg,"[4]; Rattus norvegicus, po, read-out: Percent protection calculated on edema development",50%
"C[S+]([O-])C[C@H]1O[C@@H](n2cnc3c(N)ncnc32)[C@H](O)[C@@H]1O (stereo partly drawn) [MTA sulphoxide, methylthioadenosine sulphoxide]",ED50,[5],10 mg/kg
same,activity by intramuscular administration (in words),[1]; [10],particularly active
same,inhibition in vivo at 156 mg/kg,"[1]; po, 156 mg/kg orally, rat, read-out: Percent protection calculated on edema development",50%
same,LD50,"[6]; iv, intravenously",400 mg/kg
same,LD50,"[6]; po, orally",> 2000 mg/kg
same,protection calculated on the total number of cells present in the exudate,"[3]; 80 mg/kg, intramuscularly, rat",76.4%
same,protection calculated on the volume of the exudate,"[3]; 80 mg/kg, intramuscularly, rat",75.8%
same,protection in the hot plate test,"mouse; 20 mg/kg, intramuscularly",50%
same,protection in the hot plate test,"mouse; 100 mg/kg, oral",50%
same,inhibition in vivo at 8.6 mg/kg,"[4]; im, 8.6 mg/kg intramuscularly, rat, read-out: Percent protection calculated on edema development",50%
same,activity by intramuscular administration (in words),[4]; [10],greater activity
"CCCCC[C@H](O)/C=C/[C@@H]1[C@H]2C/C(=C/CCCC(=O)O)O[C@H]2C[C@H]1O [PGI2, reference compound]","antiaggregation action alone, AA induced (in words)",[7],ineffective
"Cc1c(N(C)C)c(=O)n(-c2ccccc2)n1C [amidopyrine, reference compound]",temperature reduction,[8],4.69%
same,protection in the hot plate test,"mouse; 100 mg/kg, oral",58%
"CCCSC[C@H]1O[C@@H](n2cnc3c(N)ncnc32)[C@H](O)[C@@H]1O [n = 0 R = (CH2)2CH3, R1 = R2 = H]",inhibition in vivo at 80 mg/kg,[1]; [9],53%
"CCCCSC[C@H]1O[C@@H](n2cnc3c(N)ncnc32)[C@H](O)[C@@H]1O [n = 0 R = (CH2)3CH3, R1 = R2 = H]",inhibition in vivo at 85 mg/kg,[1]; [9],39%
"CCCCCSC[C@H]1O[C@@H](n2cnc3c(N)ncnc32)[C@H](O)[C@@H]1O [n = 0 R = (CH2)4CH3, R1 = R2 = H]",inhibition in vivo at 90 mg/kg,"[1]; po, 90 mg/kg orally, rat, read-out: Percent protection calculated on edema development",25%
"CCCCCCCSC[C@H]1O[C@@H](n2cnc3c(N)ncnc32)[C@H](O)[C@@H]1O [n = 0 R = (CH2)6CH3, R1 = R2 = H]",inhibition in vivo at 95 mg/kg,"[1]; po, 95 mg/kg orally, rat, read-out: Percent protection calculated on edema development",20%
"CCCCCCCCSC[C@H]1O[C@@H](n2cnc3c(N)ncnc32)[C@H](O)[C@@H]1O [n = 0 R = (CH2)7CH3, R1 = R2 = H]",inhibition in vivo at 100 mg/kg,"[1]; po, 100 mg/kg orally, rat, read-out: Percent protection calculated on edema development",47%
"CCCCCCCCCCSC[C@H]1O[C@@H](n2cnc3c(N)ncnc32)[C@H](O)[C@@H]1O [n = 0 R = (CH2)9CH3, R1 = R2 = H]",inhibition in vivo at 106 mg/kg,"[1]; po, 106 mg/kg orally, rat, read-out: Percent protection calculated on edema development",33%
"CCCCCCCCCCCCSC[C@H]1O[C@@H](n2cnc3c(N)ncnc32)[C@H](O)[C@@H]1O [n = 0 R = (CH2)11CH3, R1 = R2 =]",inhibition in vivo at 112 mg/kg,"[1]; po, 112 mg/kg orally, rat, read-out: Percent protection calculated on edema development",10%
"Nc1ncnc2c1ncn2[C@@H]1O[C@H](CSCc2ccccc2)[C@@H](O)[C@H]1O [n = 0 R = CH2C6 H5, R1 = R2 = H]",inhibition in vivo at 47 mg/kg,"[1]; po, 47 mg/kg orally, rat, read-out: Percent protection calculated on edema development",10%
"CCSC[C@H]1O[C@@H](n2cnc3c(N)ncnc32)[C@H](O)[C@@H]1O [n = 0 R = CH2CH3, R1 = R2 = H, 5'-deoxy-5'-ethylthioadenosine]",inhibition in vivo at 80 mg/kg,[1]; [9],44%
"CSC[C@H]1O[C@@H](n2cnc3c(N)ncnc32)[C@@H]2OC(C)(C)O[C@@H]21 [n = 0 R = CH3, R1 = H, R2R1 = isopropyl, 5'-deoxy-2',3'-isopropylidene-5'-methylthioadenosine]",inhibition in vivo at 91 mg/kg,"[1]; po, 91 mg/kg orally, rat, read-out: Percent protection calculated on edema development",20%
"CSC[C@H]1O[C@@H](n2cnc3c(NC(=O)c4ccccc4)ncnc32)[C@H](OC(=O)c2ccccc2)[C@@H]1OC(=O)c1ccccc1 [n = 0 R = CH3, R1 = R2 = COC6 H5]",inhibition in vivo at 164 mg/kg,"[1]; po, 164 mg/kg orally, rat, read-out: Percent protection calculated on edema development",10%
"CSC[C@H]1O[C@@H](n2cnc3c(NC(C)=O)ncnc32)[C@H](OC(C)=O)[C@@H]1OC(C)=O [n = 0 R = CH3, R1 = R2 = COCH3, N^6,2',3'-triacetyl-5'-deoxy-5'-thioadenosine]",inhibition in vivo at 114 mg/kg,"[1]; po, 114 mg/kg orally, rat, read-out: Percent protection calculated on edema development",47%
"CSC[C@H]1O[C@@H](n2cnc3c(NS(=O)(=O)c4ccc(C)cc4)ncnc32)[C@H](OS(=O)(=O)c2ccc(C)cc2)[C@@H]1OS(=O)(=O)c1ccc(C)cc1 [n = 0 R = CH3, R1 = R2 = tosyl]",inhibition in vivo at 204 mg/kg,"[1]; po, 204 mg/kg orally, rat, read-out: Percent protection calculated on edema development",15%
